The numbers were not newly measured in patent US8273362B2, “Ophthalmic emulsions containing prostaglandins” (Novagali Pharma S.A., priority 2004, dated 2012), which cites them from elsewhere.

Conditions in the first series: not given
For `CCCCC[C@H](O)/C=C/[C@H]1[C@H](O)CC(=O)[C@H]1C/C=C\CCCC(=O)O` [8-isoprostaglandinE2], the Solubility in water entry was “almost insoluble in water”.

Consider `CCNC(=O)CCC/C=C\C[C@@H]1[C@@H](/C=C/[C@@H](O)CCc2ccccc2)[C@H](O)C[C@@H]1O` [Bimatoprost, bimatoprost], for which the Solubility in water entry was “almost insoluble in water”. For the compound `CC(C)OC(=O)CCC/C=C\C[C@@H]1[C@@H](CC[C@@H](O)CCc2ccccc2)[C@H](O)C[C@@H]1O` [Latanoprost, latanoprost], the Solubility in water entry is on record as “almost insoluble in water”. In the case of `CC(C)OC(=O)CCC/C=C\C[C@@H]1[C@@H](/C=C/[C@@H](O)COc2cccc(C(F)(F)F)c2)[C@H](O)C[C@@H]1O` [Travoprost, travoprost], the Solubility in water result is given as “almost insoluble in water”. `CC(C)OC(=O)CCC/C=C\C[C@@H]1[C@@H](/C=C/C(F)(F)COc2ccccc2)[C@H](O)C[C@@H]1O` [tafluprost]: the Solubility in water result is listed as “almost insoluble in water”. As to `CCCCCCCC(=O)CC[C@@H]1[C@@H](C/C=C\CCCC(=O)OC(C)C)[C@@H](O)C[C@H]1O` [unoprostone isopropyl], the Solubility in water result is “almost insoluble in water”.

The conditions of a further series: at 0.3% w/v.
`CCCCCCCC/C=C\CCCCCCCCN` [oleylamine]: the “Safety for ocular administration” value is “safe”. `CCCCCCCCCCCCCCCCCCN` [stearylamine]: the “Safety for ocular administration” value is “safe”.

The conditions of the next series: ophthalmic preparations.
On to benzalkonium chloride [BAK], for which the “Toxicity of long term use” value is listed as “important toxicity”.
